Laboratory results published in patent US10597388B2, “Pyridazinone herbicides” (FMC CORPORATION, priority 2014, dated 2020).

Columns and labels:
Test in all cases: Test E greenhouse herbicide test, pre- and postemergence
Type in all cases: in vivo
[1] = test system: velvetleaf (Abutilon theophrasti); conditions: Preemergence
Outline: (§1)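 Herbicidal effect was judged by eye relative to untreated plants 14 to 21 d after spraying, using 0 for no effect and 100 for complete control. Preemergence sprays went onto freshly seeded silt loam; postemergence sprays onto 2–18 cm seedlings.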

[2] = test system: momingglory (Ipomoea coccinea); conditions: Preemergence
Outline: as §1

[3] = test system: foxtail, giant (giant foxtail, Setaria faberii); conditions: Preemergence
Outline: as §1

kochia (Kochia scoparia) = test system: kochia (Kochia scoparia)
Outline: as §1

[4] = test system: Italian ryegrass (Lolium multiflorum)
Outline: as §1

[5] = test system: ragweed (common ragweed, Ambrosia elatior)
Outline: as §1

[6] = test system: nutsedge, yellow (yellow nutsedge, Cyperus esculentus); conditions: Preemergence
Outline: as §1

[7] = test system: beggarticks (hairy beggarticks, Bidens pilosa)
Outline: as §1

[8] = test system: horseweed (Conyza canadensis)
Outline: as §1

[9] = test system: panicum, fall (fall panicum, Panicum dichotomiflorum)
Outline: as §1

corn (Zea mays) = test system: corn (Zea mays)
Outline: as §1

[10] = test system: crabgrass, large (large crabgrass, Digitaria sanguinalis); conditions: Preemergence
Outline: as §1

[11] = test system: field bindweed (Convolvulus arvensis)
Outline: as §1

[12] = test system: crabgrass, Brazilian (Brazilian crabgrass, Digitaria horizontalis)
Outline: as §1

[13] = test system: foxtail, green (green foxtail, Setaria viridis); conditions: Preemergence
Outline: as §1

[14] = test system: pigweed, palmer (palmer pigweed, Amaranthus palmeri)
Outline: as §1

[15] = test system: barnyardgrass (Echinochloa crus-galli)
Outline: as §1

[16] = 62 g ai/ha, scale 0 to 100 (0 no effect, 100 complete control)
[17] = 125 g ai/ha, scale 0 to 100 (0 no effect, 100 complete control)
[18] = 31 g ai/ha, scale 0 to 100, 0 no effect, 100 complete control
[19] = 250 g ai/ha, visual, scale 0 no effect to 100 complete control
[20] = 125 g ai/ha, visual, scale 0 no effect to 100 complete control
[21] = 62 g ai/ha, Preemergence, scale 0 to 100 (0 no effect, 100 complete control)
[22] = Preemergence, 31 g ai/ha, scale 0 to 100, 0 no effect, 100 complete control
[23] = Preemergence, 125 g ai/ha, visual, scale 0 no effect to 100 complete control
[24] = Preemergence, 250 g ai/ha, visual, scale 0 no effect to 100 complete control
[25] = 125 g ai/ha, Preemergence, scale 0 to 100 (0 no effect, 100 complete control)
[26] = 62 g ai/ha, Postemergence, scale 0 to 100 (0 no effect, 100 complete control)
[27] = 125 g ai/ha, Postemergence, scale 0 to 100 (0 no effect, 100 complete control)
[28] = 250 g ai/ha, Postemergence, scale 0 to 100 (0 no effect, 100 complete control)
[29] = Postemergence, 31 g ai/ha, visual, scale 0 no effect to 100 complete control

Cc1ccc2ccccc2c1-c1c(O)c(C)nn(C)c1=O [Compound 59]
Plant response rating, Velvetleaf [1, 16]: 95 | Plant response rating, Velvetleaf [1, 17]: 95 | Plant response rating, Velvetleaf [1, 18]: 90 | Plant response rating, Velvetleaf [1, 19]: 98 | Plant response rating, Morningglory [2, 16]: 95 | Plant response rating, Morningglory [2, 17]: 98 | Plant response rating, Morningglory [2, 18]: 75 | Plant response rating, Morningglory [2, 19]: 100 | Plant response rating, Foxtail, Giant [3, 16]: 95 | Plant response rating, Foxtail, Giant [3, 18]: 85 | Plant response rating, Foxtail, Giant [3, 20]: 98 | Plant response rating, Foxtail, Giant [3, 19]: 100 | Plant response rating, Kochia (kochia (Kochia scoparia); [21]): 90 | Plant response rating, Kochia (kochia (Kochia scoparia); [22]): 80 | Plant response rating, Kochia (kochia (Kochia scoparia); [23]): 100 | Plant response rating, Kochia (kochia (Kochia scoparia); [24]): 100 | Plant response rating, Ryegrass, Italian [4, 21]: 100 | Plant response rating, Ryegrass, Italian [4, 25]: 100 | Plant response rating, Ryegrass, Italian [4, 22]: 100 | Plant response rating, Ryegrass, Italian [4, 24]: 100 | Plant response rating, Ragweed [5, 21]: 95 | Plant response rating, Ragweed [5, 25]: 100 | Plant response rating, Ragweed [5, 22]: 100 | Plant response rating, Ragweed [5, 24]: 100 | Plant response rating, Nutsedge, Yellow [6, 16]: 35 | Plant response rating, Nutsedge, Yellow [6, 17]: 75 | Plant response rating, Nutsedge, Yellow [6, 18]: 50 | Plant response rating, Nutsedge, Yellow [6, 19]: 70 | Plant response rating, Beggarticks [7, 21]: 100 | Plant response rating, Beggarticks [7, 22]: 100 | Plant response rating, Beggarticks [7, 23]: 100 | Plant response rating, Beggarticks [7, 24]: 100 | Plant response rating, Horseweed [8, 21]: 100 | Plant response rating, Horseweed [8, 22]: 100 | Plant response rating, Horseweed [8, 23]: 100 | Plant response rating, Horseweed [8, 24]: 100 | Plant response rating, Panicum, Fall [9, 21]: 98 | Plant response rating, Panicum, Fall [9, 25]: 100 | Plant response rating, Panicum, Fall [9, 22]: 95 | Plant response rating, Panicum, Fall [9, 24]: 100 | Plant response rating, Corn (corn (Zea mays); [21]): 0 | Plant response rating, Corn (corn (Zea mays); [22]): 0 | Plant response rating, Corn (corn (Zea mays); [23]): 0 | Plant response rating, Corn (corn (Zea mays); [24]): 20 | Plant response rating, Crabgrass, Large [10, 16]: 50 | Plant response rating, Crabgrass, Large [10, 18]: 0 | Plant response rating, Crabgrass, Large [10, 20]: 80 | Plant response rating, Crabgrass, Large [10, 19]: 95 | Plant response rating, Field Bindweed [11, 21]: 75 | Plant response rating, Field Bindweed [11, 22]: 65 | Plant response rating, Field Bindweed [11, 23]: 95 | Plant response rating, Field Bindweed [11, 24]: 95 | Plant response rating, Crabgrass, Brazil [12, 21]: 90 | Plant response rating, Crabgrass, Brazil [12, 22]: 60 | Plant response rating, Crabgrass, Brazil [12, 23]: 100 | Plant response rating, Crabgrass, Brazil [12, 24]: 100 | Plant response rating, Foxtail, Green [13, 16]: 90 | Plant response rating, Foxtail, Green [13, 18]: 65 | Plant response rating, Foxtail, Green [13, 20]: 95 | Plant response rating, Foxtail, Green [13, 19]: 100 | Plant response rating, Pigweed, Palmer [14, 21]: 98 | Plant response rating, Pigweed, Palmer [14, 25]: 100 | Plant response rating, Pigweed, Palmer [14, 22]: 95 | Plant response rating, Pigweed, Palmer [14, 24]: 100 | Plant response rating, Barnyardgrass [15, 21]: 25 | Plant response rating, Barnyardgrass [15, 22]: 0 | Plant response rating, Barnyardgrass [15, 23]: 60 | Plant response rating, Barnyardgrass [15, 24]: 90

COC(=O)Oc1c(C)nn(C)c(=O)c1-c1c(C)sc2c(C)cc(C)cc12 [Compound 81]
Plant response rating, Velvetleaf [1, 16]: 70 | Plant response rating, Velvetleaf [1, 17]: 90 | Plant response rating, Velvetleaf [1, 18]: 10 | Plant response rating, Velvetleaf [1, 19]: 95 | Plant response rating, Morningglory [2, 16]: 85 | Plant response rating, Morningglory [2, 17]: 100 | Plant response rating, Morningglory [2, 18]: 60 | Plant response rating, Morningglory [2, 19]: 100 | Plant response rating, Foxtail, Giant [3, 16]: 98 | Plant response rating, Foxtail, Giant [3, 17]: 98 | Plant response rating, Foxtail, Giant [3, 18]: 75 | Plant response rating, Foxtail, Giant [3, 19]: 100 | Plant response rating, Kochia (kochia (Kochia scoparia); [26]): 70 | Plant response rating, Kochia (kochia (Kochia scoparia); [21]): 20 | Plant response rating, Kochia (kochia (Kochia scoparia); [27]): 70 | Plant response rating, Kochia (kochia (Kochia scoparia); [25]): 35 | Plant response rating, Kochia (kochia (Kochia scoparia); [28]): 75 | Plant response rating, Kochia (kochia (Kochia scoparia); [29]): 60 | Plant response rating, Kochia (kochia (Kochia scoparia); [22]): 0 | Plant response rating, Kochia (kochia (Kochia scoparia); [24]): 100 | Plant response rating, Ryegrass, Italian [4, 26]: 70 | Plant response rating, Ryegrass, Italian [4, 21]: 95 | Plant response rating, Ryegrass, Italian [4, 27]: 75 | Plant response rating, Ryegrass, Italian [4, 25]: 90 | Plant response rating, Ryegrass, Italian [4, 28]: 80 | Plant response rating, Ryegrass, Italian [4, 29]: 50 | Plant response rating, Ryegrass, Italian [4, 22]: 75 | Plant response rating, Ryegrass, Italian [4, 24]: 100 | Plant response rating, Ragweed [5, 26]: 60 | Plant response rating, Ragweed [5, 21]: 100 | Plant response rating, Ragweed [5, 27]: 85 | Plant response rating, Ragweed [5, 25]: 100 | Plant response rating, Ragweed [5, 28]: 80 | Plant response rating, Ragweed [5, 29]: 60 | Plant response rating, Ragweed [5, 22]: 90 | Plant response rating, Ragweed [5, 24]: 100 | Plant response rating, Nutsedge, Yellow [6, 16]: 30 | Plant response rating, Nutsedge, Yellow [6, 17]: 80 | Plant response rating, Nutsedge, Yellow [6, 18]: 35 | Plant response rating, Nutsedge, Yellow [6, 19]: 90 | Plant response rating, Beggarticks [7, 26]: 100 | Plant response rating, Beggarticks [7, 21]: 100 | Plant response rating, Beggarticks [7, 27]: 100 | Plant response rating, Beggarticks [7, 25]: 100 | Plant response rating, Beggarticks [7, 28]: 100 | Plant response rating, Beggarticks [7, 29]: 90 | Plant response rating, Beggarticks [7, 22]: 80 | Plant response rating, Beggarticks [7, 24]: 100 | Plant response rating, Horseweed [8, 26]: 75 | Plant response rating, Horseweed [8, 21]: 100 | Plant response rating, Horseweed [8, 27]: 65 | Plant response rating, Horseweed [8, 25]: 100 | Plant response rating, Horseweed [8, 28]: 85 | Plant response rating, Horseweed [8, 29]: 50 | Plant response rating, Horseweed [8, 22]: 90 | Plant response rating, Horseweed [8, 24]: 100 | Plant response rating, Panicum, Fall [9, 26]: 80 | Plant response rating, Panicum, Fall [9, 21]: 100 | Plant response rating, Panicum, Fall [9, 27]: 85 | Plant response rating, Panicum, Fall [9, 25]: 100 | Plant response rating, Panicum, Fall [9, 28]: 90 | Plant response rating, Panicum, Fall [9, 29]: 85 | Plant response rating, Panicum, Fall [9, 22]: 98 | Plant response rating, Panicum, Fall [9, 24]: 100 | Plant response rating, Corn (corn (Zea mays); [26]): 0 | Plant response rating, Corn (corn (Zea mays); [21]): 0 | Plant response rating, Corn (corn (Zea mays); [27]): 5 | Plant response rating, Corn (corn (Zea mays); [25]): 0 | Plant response rating, Corn (corn (Zea mays); [28]): 5 | Plant response rating, Corn (corn (Zea mays); [29]): 0 | Plant response rating, Corn (corn (Zea mays); [22]): 0 | Plant response rating, Corn (corn (Zea mays); [24]): 0 | Plant response rating, Crabgrass, Large [10, 16]: 75 | Plant response rating, Crabgrass, Large [10, 17]: 90 | Plant response rating, Crabgrass, Large [10, 18]: 50 | Plant response rating, Crabgrass, Large [10, 19]: 98 | Plant response rating, Field Bindweed [11, 26]: 65 | Plant response rating, Field Bindweed [11, 21]: 0 | Plant response rating, Field Bindweed [11, 27]: 75 | Plant response rating, Field Bindweed [11, 25]: 75 | Plant response rating, Field Bindweed [11, 28]: 85 | Plant response rating, Field Bindweed [11, 29]: 60 | Plant response rating, Field Bindweed [11, 22]: 0 | Plant response rating, Field Bindweed [11, 24]: 100 | Plant response rating, Crabgrass, Brazil [12, 26]: 40 | Plant response rating, Crabgrass, Brazil [12, 21]: 95 | Plant response rating, Crabgrass, Brazil [12, 27]: 50 | Plant response rating, Crabgrass, Brazil [12, 25]: 90 | Plant response rating, Crabgrass, Brazil [12, 28]: 50 | Plant response rating, Crabgrass, Brazil [12, 29]: 40 | Plant response rating, Crabgrass, Brazil [12, 22]: 65 | Plant response rating, Crabgrass, Brazil [12, 24]: 100 | Plant response rating, Foxtail, Green [13, 16]: 70 | Plant response rating, Foxtail, Green [13, 17]: 95 | Plant response rating, Foxtail, Green [13, 18]: 20 | Plant response rating, Foxtail, Green [13, 19]: 100 | Plant response rating, Pigweed, Palmer [14, 26]: 20 | Plant response rating, Pigweed, Palmer [14, 21]: 75 | Plant response rating, Pigweed, Palmer [14, 25]: 75 | Plant response rating, Pigweed, Palmer [14, 28]: 50 | Plant response rating, Pigweed, Palmer [14, 29]: 30 | Plant response rating, Pigweed, Palmer [14, 22]: 35 | Plant response rating, Pigweed, Palmer [14, 24]: 100 | Plant response rating, Barnyardgrass [15, 26]: 20 | Plant response rating, Barnyardgrass [15, 21]: 25 | Plant response rating, Barnyardgrass [15, 27]: 30 | Plant response rating, Barnyardgrass [15, 25]: 35 | Plant response rating, Barnyardgrass [15, 28]: 50 | Plant response rating, Barnyardgrass [15, 29]: 20 | Plant response rating, Barnyardgrass [15, 22]: 0 | Plant response rating, Barnyardgrass [15, 24]: 75
